# Where two headings read alike, the source gives them in different places.
# What was measured:
# [1] = Pharmacokinetic analysis after a single dose by oral gavage; type: in vivo, NOD/SCID mice; details: for AUC(0-inf) / Cmax / Tmax / half-life / Vd/F: female, NOD/SCID, mouse, plasma; for half-life: read-out: Terminal t½ (converted); for Vd/F: read-out: Vz/F
# Procedure: We evaluated PK parameters after administration of a single dose of HHT by oral gavage to mice of 0.4 mg/kg, 0.7 mg/kg and 2 mg/kg (Table 1). […] Treatment with 0.4 mg/kg HTT by gavage most closely approximated human exposures. […] Given our in vitro studies, we sought to sustain 50 nM drug levels and mice were dosed with 0.7 mg/kg HHT given by gavage twice daily.
# Female NOD/SCID mice (6-7 weeks) were administered homoharringtonine (HHT) by oral gavage. DMSO was used to wet the compound which was subsequently diluted in normal saline (pH 7.2) prior to administration (final DMSO < 5%). Animals were sacrificed in duplicate by inhalation overdose of CO2 at varying times post-dose and bled by cardiac puncture using acidified citrate dextrose (ACD) as the anticoagulant. Plasma was isolated after centrifugation at 9,600 x g for 10 minutes at 4°C. Protein was precipitated from 100 μl of plasma with 100 μl of acetonitrile containing 100 ng/ml of n-benzylbenzamide, which was used as an internal standard (IS), and 0.2% formic acid. After extensive vortexing, samples were incubated for 10 minutes at RT and spun twice at 16,100 x g for 5 minutes. The supernatant was evaluated by LC-MS/MS using a Shimadzu (Columbia, MD) Prominence LC coupled to an AB Sciex (Framingham, MA) 3200 Qtrap mass spectrometer. Extraction conditions were optimized prior to PK analysis for efficient and reproducible recovery over a three log range of concentrations. Analytical standards and quality control samples were prepared in a similar fashion by spiking commercial CD-1 mouse plasma (Bioreclamation, Westbury, NY) with known quantities of HHT. Chromatography conditions were as follows: an Agilent (Santa Clara, CA) C18 XDB, 5 micron packing, 50 × 4.6 mm size column was used for reverse phase chromatography. Buffer A consisted of dH2O + 0.1% formic acid and Buffer B consisted of methanol + 0.1% formic acid. Gradient conditions utilized were: 0.01-1.0 min 3% B, 1.0-1.5 min gradient to 100% B,1.5-3.0 min 100% B, 3.0-3.1 min gradient to 3% B, 3.1-4.1 min 3% B. HHT was detected as the 546.3 to 298.3 transition, and the IS (n-benzylbenzamide) as the 212.1 to 91.1 transition. Data were analyzed using Analyst software (AB Sciex.) A value 3x above the signal obtained in the blank plasma was designated as the limit of detection (LOD). The limit of quantitation (LOQ) was defined as the lowest concentration on the standard curve at which back calculation yielded a concentration within 20% of the theoretical value and above the LOD signal. The LOQ for HHT was 0.5 ng/ml. Pharmacokinetic properties were evaluated using the noncompartmental analysis tool in WinNonlin (Certara, Corp., St. Louis, MO). Sparse sampling was used for data analysis. Terminal half-life was calculated as the ln(2)/λz where λz is a first order rate constant associated with the terminal (log-linear) portion of the curve. It is estimated by linear regression of time vs. log concentration by the software for three or more of the final nonzero data points. Tmax (time to maximal drug concentration) and Cmax (maximal drug concentration) were determined by visual inspection. Area under the concentration time curve (AUCinf) from time 0 to infinity was determined by linear trapezoidal analysis. Apparent Volume of Distribution (Vz/F) is based on the terminal phase and is calculated as Dose/λz*AUCinf while Apparent Clearance (CL/F) is calculated as Dose/AUCinf. Calculation of Absolute Vz and CL requires knowledge of oral bioavailability (F) which is calculated as AUCoral/AUCiv X Dose iv/Doseoral but was not determined here because an IV PK was not performed.
# [2] = test system: XP144 tumorgraft line; test: ccRCC tumorgraft model, line XP144; type: in vivo, NOD/SCID mice; details: 0.7 mg/kg by gavage twice daily
# Procedure: We selected 6 independently-derived ccRCC tumorgraft lines that were confirmed to have VHL mutation. The mice (3-5 mice per tumorgraft line) were treated with either HHT (0.7 mg/kg), vehicle (as a negative control), or rapamycin (0.5 mg/kg; as a positive control). In total, 65 tumorgraft bearing mice were evaluated for these experiments in time courses lasting ~28 days, with tumor growth measured every 3 or 4 days.
# Figure 3 HHT inhibits tumor growth in a ccRCC tumorgraft model A-F, Tumorgraft lines were treated with vehicle control, HHT (0.7 mg/kg), rapamycin (0.5 mg/kg), (or the combination, where indicated) and tumor growth was measured on the indicated days. Day 0 represents the first day of treatment.
# Tumorgrafts were generated and propagated as described previously, with tumor samples implanted subcutaneously into the flank of the mouse for drug trials. Briefly, 4- to 8-week-old NOD/SCID mice were anesthetized with isoflurane and implanted subcutaneously with 64 mm^3 tumor fragments (cohorts 2-20). Once tumors reached an average of at least ~250 mm^3, drug treatment was begun. […] Tumor size (volume) was measured twice weekly and was obtained by multiplying tumor length, width, and depth using calipers. To assess toxicity, mouse weight was monitored once weekly.
# [3] = set-up: method as in PMID 3598625; details: cited from earlier work
structure (smiles),measurement,setting,value
"COC(=O)C[C@](O)(CCCC(C)(C)O)C(=O)O[C@@H]1C(OC)=C[C@]23CCCN2CCc2cc4c(cc2[C@H]13)OCO4 [HHT, homoharringtonine]",Cl/F,"[1]; 0.4 mg/kg oral gavage, mice",32.7 mL/h
same,Cl/F,"[1]; 0.7 mg/kg oral gavage, mice",30.5 mL/h
same,time HHT concentrations above 50 nM were sustained,"[1]; 0.7 mg/kg oral gavage, mice, 50 nM equivalent to 27.3 ng/mL",~ 6 hours
same,Cl/F,"[1]; 2 mg/kg oral gavage, mice",46.6 mL/h
same,AUC(0-inf),"[1]; 0.4 mg/kg oral gavage, mice",251 ng·h/mL
same,Cmax,"[1]; 0.4 mg/kg oral gavage, mice",28.8 ng/mL
same,Tmax,"[1]; 0.4 mg/kg oral gavage, mice",0.17 h
same,half-life,"[1]; 0.4 mg/kg oral gavage, mice",1.86 h
same,Vd/F,"[1]; 0.4 mg/kg oral gavage, mice",0.0877 L
same,AUC(0-inf),"[1]; 0.7 mg/kg oral gavage, mice",440 ng·h/mL
same,Cmax,"[1]; 0.7 mg/kg oral gavage, mice",57.8 ng/mL
same,Tmax,"[1]; 0.7 mg/kg oral gavage, mice",0.17 h
same,half-life,"[1]; 0.7 mg/kg oral gavage, mice",2.8 h
same,Vd/F,"[1]; 0.7 mg/kg oral gavage, mice",0.123 L
same,AUC(0-inf),"[1]; 2 mg/kg oral gavage, mice",905 ng·h/mL
same,Cmax,"[1]; 2 mg/kg oral gavage, mice",97.2 ng/mL
same,Tmax,"[1]; 2 mg/kg oral gavage, mice",1.5 h
same,half-life,"[1]; 2 mg/kg oral gavage, mice",6.74 h
same,Vd/F,"[1]; 2 mg/kg oral gavage, mice",0.453 L
same,time at which Cmax was reached,"[1]; two lower doses (0.4 and 0.7 mg/kg), first time point sampled",10 min
same,tumor weight smaller than vehicle-treated,[2],32%
same,tumor growth inhibition (tumor volume) vs vehicle,[2]; ~28 days,43.0%
same,blood-brain barrier penetration,[3],penetrates the blood-brain barrier

# From publication PMC4627284, “High-throughput simultaneous screen and counterscreen identifies homoharringtonine as synthetic lethal with von Hippel-Lindau loss in renal cell carcinoma” (Oncotarget, 2015)
